Read-outs that look alike come from different tables or passages of the source. Values belong to the molecule of their own block, whether it stands above or below them. Peptide text beside a SMILES is read from it. * marks the point of attachment. Dnp = O=[N+]([O-])c1ccc(*)c([N+](=O)[O-])c1; Mca = COc1ccc2c(CC(=O)*)cc(=O)oc2c1
Experiments:
meprin α [1] = molecular target: T1, meprin α (Homo sapiens, UniProt Q16819); test: Meprin α assay, fluorogenic substrate (Mca)-YVADAPK-(K-ε-Dnp), 384 and 1536 well plate formats; assay type: biochemical
T1 sequence (Q16819 66-593 limits assumed): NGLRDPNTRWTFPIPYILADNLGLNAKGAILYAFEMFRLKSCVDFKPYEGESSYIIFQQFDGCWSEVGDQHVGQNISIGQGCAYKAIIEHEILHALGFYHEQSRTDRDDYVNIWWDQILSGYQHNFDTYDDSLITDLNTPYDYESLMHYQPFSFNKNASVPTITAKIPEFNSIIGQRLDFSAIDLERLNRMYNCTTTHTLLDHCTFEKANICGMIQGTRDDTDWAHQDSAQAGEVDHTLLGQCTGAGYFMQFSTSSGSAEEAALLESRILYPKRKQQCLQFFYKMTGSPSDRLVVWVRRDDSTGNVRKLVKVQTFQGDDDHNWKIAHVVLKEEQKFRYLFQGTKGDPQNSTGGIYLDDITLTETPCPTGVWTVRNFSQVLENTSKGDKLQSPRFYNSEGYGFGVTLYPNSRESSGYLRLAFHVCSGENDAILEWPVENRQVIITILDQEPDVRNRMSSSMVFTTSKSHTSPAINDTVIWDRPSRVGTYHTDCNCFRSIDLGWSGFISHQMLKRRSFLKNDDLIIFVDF
From the text: (§1) The meprin α and meprin β assays, which utilize the substrates (Mca)-YVADAPK-(K-ε-Dnp) and (Mca)-EDEDED-(K-ε-Dnp), respectively, have been described previously. To enable an ultra-high-throughput screening (uHTS) campaign, we proceeded to miniaturize both assays to 1536 well plate format (wpf). First, we recapitulated the assays in 1536 well plate using reagents at the same concentrations as in 384 well plate format assays by scaling the volume down by the factor of 2.5.
(§2) Both assays followed the same general protocol. A 5 µL measure of 2 × enzyme solution (2.6 and 0.1 nM for meprin α and meprin β, respectively) in assay buffer (50 mM Hepes, 0.01% Brij-35, pH 7.5) was added to solid bottom black 384 low volume plates (Nunc, cat# 264705). Next, 75 nL of test compounds or pharmacological control (actinonin or NFF449) were added to corresponding wells using a 384-pin tool device (V&P Scientific, San Diego, CA, USA). After 30 min incubation at RT, the reactions were started by addition of 5 µL of 2 × solutions of substrates (20 µM, mepin α substrate Mca-YVADAPK-K(Dnp) or meprin β substrate Mca-EDEDED-K(Dnp)). Reactions were incubated at RT for 1 h, after which the fluorescence was measured using the Synergy H4 multimode microplate reader (Biotek Instruments) (λexcitation = 324 nm, λemission = 390 nm).
(§3) Both assays followed the same general protocol. A 2 µL portion of 2 × enzyme solution (1.3 and 0.0125 nM for meprin α and meprin β, respectively) in assay buffer (50 mM Hepes, 0.01% Brij-35, pH 7.5) was added to solid bottom black 1536 low volume plates (Corning cat# 7261). Next, 30 nL of test compounds or pharmacological control (actinonin or NFF449) was added to corresponding wells using a 1536 pin tool device (V&P Scientific, San Diego). After 30 min incubation at RT, the reactions were started by addition of 2 µL of 2x solutions of substrates (20 µM, meprin α substrate Mca-YVADAPK-K(Dnp) or meprin β substrate Mca-EDEDED-K(Dnp)). Reactions were incubated at RT for 1 h, after which the fluorescence was measured using the Viewlux multimode microplate reader (Perkin Elmer) (λexcitation = 324 nm, λemission = 390 nm).
(§4) The miniaturized 1536-well plate format meprin α and meprin β assays were used to screen a collection of approximately 650,000 compounds (The Scripps Research library, La Jolla, CA, USA) on the automated Kalypsys/GNF platform at The Scripps Research Molecular Screening Center (SRMSC, Jupiter, FL, USA: http://hts.florida.scripps.edu/). Both uHTS campaigns were run separately but in a similar manner. Briefly, the first step was the primary screen of all test compounds as singlicates against the meprin α and meprin β target at a final concentration of 7.0 μM. Next, compounds selected as primary hits were cherry-picked and retested in triplicate against the primary screen target and its antitarget (meprin α for the meprin β screening effort, and vice versa) at a same final concentration of 7.0 μM. The additional counter screen assays against related metzincins (MMP-8, MMP-14, and ADAM10) were performed in triplicate at a final concentration of 7.0 μM. The final step was the titration of selected hits as 10-point, 1:3 serial dilutions in both the target and antitarget assay, starting at a final nominal concentration of 17 μM. […] Wells treated with DMSO only were used as negative controls and 0% inhibition reference. […] All data generated during this effort were uploaded to the SRMSC’s institutional screening database (Assay Explorer, Symyx). Sample to background (S/B) ratios, as well as Z and Z’ values, were calculated on a per plate basis as described 14. Curve fitting and resulting IC50 determinations were performed as previously reported.

meprin β [2] = molecular target: T2, meprin β (Homo sapiens, UniProt Q16820); test: Meprin β assay, fluorogenic substrate (Mca)-EDEDED-(K-ε-Dnp), 384 and 1536 well plate formats; assay type: biochemical; conditions: read-out: IC50
T2 sequence (Q16820 62-594 limits assumed): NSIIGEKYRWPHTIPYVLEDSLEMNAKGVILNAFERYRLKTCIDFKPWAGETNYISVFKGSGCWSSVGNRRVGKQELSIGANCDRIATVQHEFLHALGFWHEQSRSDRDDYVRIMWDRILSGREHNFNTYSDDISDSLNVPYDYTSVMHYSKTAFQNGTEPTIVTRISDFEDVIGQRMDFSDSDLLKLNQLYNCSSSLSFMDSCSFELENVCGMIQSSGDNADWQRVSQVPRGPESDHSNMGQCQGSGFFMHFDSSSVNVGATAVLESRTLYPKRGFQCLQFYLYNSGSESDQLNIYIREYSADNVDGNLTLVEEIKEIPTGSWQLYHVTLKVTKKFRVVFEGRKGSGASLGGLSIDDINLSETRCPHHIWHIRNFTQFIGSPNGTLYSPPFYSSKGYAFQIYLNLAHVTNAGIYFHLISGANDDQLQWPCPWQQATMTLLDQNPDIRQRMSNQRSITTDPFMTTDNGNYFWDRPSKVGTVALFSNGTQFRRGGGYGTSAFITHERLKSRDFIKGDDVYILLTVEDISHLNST
From the text: as §1, §2, §3, §4

meprin α [3] = conditions: cited from earlier work
meprin β [4] = conditions: cited from earlier work
MMP and ADAM = conditions: cited from earlier work; for effect on MMP and ADAM activity: 200 µM inhibitor
meprin α [5] = molecular target: T1, meprin α; test: Kinetic parameters of meprin α mediated proteolysis of its substrate; assay type: biochemical; conditions: proteolysis by meprin α, 25 °C
Description: Next, we performed substrate optimization to achieve balanced assay conditions defined as [S]/KM = 1 [19]. In order to do that, we first determined kinetic parameters of proteolysis of meprin α and meprin β substrates by the respective enzymes (Figure 4A,B). […] To optimize substrate concentrations, both assays were run for 90 min at three different substrate concentrations (10, 5, and 2.5 µM) which included the concentration at which the assays were recapitulated in 1536 wpf (10 µM for both meprin α and meprin β) and the concentration approximating [S]/KM = 1 condition (2.5 µM). Enzyme concentrations were fixed at 1.3 nM for meprin α and 0.0125 nM for meprin β. […]
Substrate stock solutions were prepared at various concentrations in HTS assay buffer (50 mM Hepes, 0.01% Brij-35, pH 7.5). […] Fluorescence was measured on a multimode microplate reader Synergy H1 (Biotek Instruments, Winooski, VT, USA) using λexcitation = 324 nm and λemission = 393 nm. Rates of hydrolysis were obtained from plots of fluorescence versus time, using data points from only the linear portion of the hydrolysis curve. The slope from these plots was divided by the fluorescence change corresponding to complete hydrolysis and then multiplied by the substrate concentration to obtain rates of hydrolysis in units of μM/s. […]

increased apparent potency (meprin α [1]; 2.5 µM substrate condition): 2 fold | IC50 (meprin α [1]; 1536 wpf, 1.3 nM enzyme, substrate 2.5uM, time 30 min, read-out: Actinonin IC50): 3 nM | IC50 (meprin α [1]; 1536 wpf, 1.3 nM enzyme, substrate 2.5uM, time 60 min, read-out: Actinonin IC50): 3.4 nM | IC50 (meprin α [1]; 1536 wpf, 1.3 nM enzyme, substrate 5uM, time 30 min, read-out: Actinonin IC50): 3.2 nM | IC50 (meprin α [1]; 1536 wpf, 1.3 nM enzyme, substrate 10uM, time 30 min, read-out: Actinonin IC50): 5.4 nM | IC50 (meprin α [1]; 1536 wpf, 1.3 nM enzyme, substrate 10uM, time 60 min, read-out: Actinonin IC50): 6.4 nM | IC50 (meprin α [1]; 1536 wpf, 1.3 nM enzyme, substrate 10uM, time 90 min, read-out: Actinonin IC50): 6.9 nM | IC50 (meprin α [1]; 1536 wpf, enzyme 0.32nM, time 30 min, read-out: Actinonin IC50): 5.18 nM | IC50 (meprin α [1]; 1536 wpf, enzyme 0.32nM, time 60 min, read-out: Actinonin IC50): 5.54 nM | IC50 (meprin α [1]; 1536 wpf, enzyme 0.32nM, time 90 min, read-out: Actinonin IC50): 5.83 nM | IC50 (meprin α [1]; 1536 wpf, enzyme 0.65nM, time 30 min, read-out: Actinonin IC50): 4.11 nM | IC50 (meprin α [1]; 1536 wpf, enzyme 0.65nM, time 60 min, read-out: Actinonin IC50): 4.99 nM | IC50 (meprin α [1]; 1536 wpf, enzyme 0.65nM, time 90 min, read-out: Actinonin IC50): 5.2 nM | IC50 (meprin α [1]; 1536 wpf, enzyme 1.3nM, time 30 min, read-out: Actinonin IC50): 4.84 nM | IC50 (meprin α [1]; 1536 wpf, enzyme 1.3nM, time 60 min, read-out: Actinonin IC50): 5.94 nM | IC50 (meprin α [1]; 1536 wpf, enzyme 1.3nM, time 90 min, read-out: Actinonin IC50): 6.33 nM | IC50 (meprin α [1]; Meprin α 384 wpf, read-out: IC50): 11 nM | IC50 (meprin α [1]; Meprin α 1536 wpf, read-out: IC50): 5.7 nM | IC50 (meprin α [1]; control compound in primary HTS campaign, n = 11 plates, read-out: IC50): 2.9 ± 0.12 nM | IC50 (meprin β [2]; Meprin β 384 wpf): 22 µM | IC50 (meprin β [2]; Meprin β 1536 wpf): 9.75 µM
Structure (SMILES): CCCCC[C@H](CC(=O)NO)C(=O)N[C@H](C(=O)N1CCC[C@H]1CO)C(C)C [Actinonin, actinonin]

Structure (SMILES): O=C(CN(Cc1ccc(F)c(O)c1F)Cc1ccc(F)c(O)c1F)NO [Compound 8h]
IC50 (meprin α [3]; read-out: IC50 meprin α): 626 nM | selective against meprin α (meprin β [4]): 27 fold | IC50 (meprin β [4]; read-out: IC50 meprin β): 23 nM | effect on MMP and ADAM activity (MMP and ADAM): only limited effect

Structure (SMILES): O=C(CN(Cc1ccc(Cl)c(O)c1F)Cc1ccc(Cl)c(O)c1F)NO [Compound 8i]
IC50 (meprin α [3]; read-out: IC50 meprin α): 368 nM | selective against meprin α (meprin β [4]): 15 fold | IC50 (meprin β [4]; read-out: IC50 meprin β): 24 nM | effect on MMP and ADAM activity (MMP and ADAM): only limited effect

Structure (SMILES): O=C(CCN(CCc1ccc2c(c1)OCCO2)CCc1ccc2c(c1)OCCO2)NO [Compound 10d]
selectivity against meprin β (Selectivity Fold) (meprin α [3]): 18 fold | IC50 (meprin α [3]; read-out: Meprin α IC50): 160 nM | IC50 (meprin β [4]; read-out: Meprin β IC50): 2950 nM

Structure (SMILES): O=C(CCN(CCc1ccc2c(c1)OCO2)CCc1ccc2c(c1)OCO2)NO [Compound 10e]
selectivity against meprin β (Selectivity Fold) (meprin α [3]): 19 fold | IC50 (meprin α [3]; read-out: Meprin α IC50): 400 nM | IC50 (meprin β [4]; read-out: Meprin β IC50): 7590 nM

Structure (SMILES): O=C(CN(Cc1cccc(C(=O)O)c1)S(=O)(=O)c1cccc(C(=O)O)c1)NO [Compound 11g]
IC50 (meprin α [3]; read-out: IC50 meprin α): 2740 nM | selectivity against meprin α (meprin β [4]): 46 fold | IC50 (meprin β [4]; read-out: IC50 meprin β): 60 nM | selectivity against adamalysins and matrixins (MMP and ADAM): good selectivity

Structure (SMILES): Cc1nc(/N=N/c2cc(S(=O)(=O)O)c3cc([N+](=O)[O-])cc(S(=O)(=O)O)c3c2)c(COP(=O)(O)O)c(C=O)c1O [PPNDS]
Ki (meprin β [4]): 8 nM

Structure (SMILES): COc1ccc2c(CC(=O)N[C@@H](Cc3ccc(O)cc3)C(=O)N[C@H](C(=O)N[C@@H](C)C(=O)N[C@@H](CC(=O)O)C(=O)N[C@@H](C)C(=O)N3CCC[C@H]3C(=O)N[C@@H](CCCCN)C(=O)N[C@@H](CCCCNc3ccc([N+](=O)[O-])cc3[N+](=O)[O-])C(N)=O)C(C)C)cc(=O)oc2c1 [meprin α substrate, (Mca)-YVADAPK-(K-ε-Dnp)] (Mca-YVADAPKK(Dnp)-NH2)
Km (meprin α [5]): 2400 ± 300 nM

Reference: article PMC8000592, “Discovery and Optimization of Selective Inhibitors of Meprin α (Part I)” (Pharmaceuticals, 2021)
